From US12043599B2, “Herbicidal compounds” (SYNGENTA PARTICIPATIONS AG, priority 2018, dated 2024)

Legend:
Type in all cases: in vivo
Conditions in all cases: 250 g/h, evaluated after 13 days
[1] = tested on: Alopecurus myosuroides (ALOMY); assay: Pre-emergence herbicidal glasshouse test, percentage damage
In short: (§1)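 Potted plants in standard soil; pre-emergence spray after 1 d of cultivation, post-emergence after 8 d. Dose 250 g/h from an acetone/water (50:50), 0.5% Tween 20 formulation. % damage at 13 d, scored 1–5.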

Avena fatua (AVEFA) [2] = assay: as above
In short: as §1

[3] = tested on: Echinochloa crus-galli (ECHCG); assay: as above
In short: as §1

Lolium perenne (LOLPE) [4] = assay: as above
In short: as §1

Setaria faberi (SETFA) [5] = assay: as above
In short: as §1

Setaria faberi (SETFA) [6] = assay: Post-emergence herbicidal glasshouse test, percentage damage
In short: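 Wheat, barley and Setaria faberi were sprayed post-emergence after 8 days' growth (24/16 °C, 14 h light, 65% humidity) with compound in acetone/water (50:50) containing 0.5% Tween 20, at the indicated rates. On wheat, compounds were also applied with cloquintocet-mexyl at 50 g/ha. Damage was scored after 13 days on a five-point scale (5=80-100% to 1=0-19%).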

[7] = tested on: Alopecurus myosuroides (ALOMY); assay: as above
In short: as §1

Avena fatua (AVEFA) [8] = assay: as above
In short: as §1

[9] = tested on: Echinochloa crus-galli (ECHCG); assay: as above
In short: as §1

Lolium perenne (LOLPE) [10] = assay: as above
In short: as §1

Compound	ALOMY PRE percentage damage (five point scale) [1]	AVEFA PRE percentage damage (five point scale) (Avena fatua (AVEFA) [2])	ECHCG PRE percentage damage (five point scale) [3]	LOLPE PRE percentage damage (five point scale) (Lolium perenne (LOLPE) [4])	SETFA PRE percentage damage (five point scale) (Setaria faberi (SETFA) [5])	SETFA POST percentage damage (five point scale) (Setaria faberi (SETFA) [6])	ALOMY POST percentage damage (five point scale) [7]	AVEFA POST percentage damage (five point scale) (Avena fatua (AVEFA) [8])	ECHCG POST percentage damage (five point scale) [9]	LOLPE POST percentage damage (five point scale) (Lolium perenne (LOLPE) [10])
CC#Cc1cc(C)c(C2C(=O)CC3(CCN(C(=O)NC(=O)c4cc(F)ccn4)CC3)CC2=O)c(C)c1 [Compound A164]	4 (4=60-79%)	5 (5=80-100%)	5 (5=80-100%)	5 (5=80-100%)	5 (5=80-100%)	5 (5=80-100%)	5 (5=80-100%)	5 (5=80-100%)	5 (5=80-100%)	5 (5=80-100%)
CC#Cc1cc(C)c(C2C(=O)CC3(CCN(C(=O)N(C)C(=O)C(C)(C)C)CC3)CC2=O)c(C)c1 [Compound A165]	4 (4=60-79%)	4 (4=60-79%)	5 (5=80-100%)	4 (4=60-79%)	5 (5=80-100%)	5 (5=80-100%)	5 (5=80-100%)	5 (5=80-100%)	5 (5=80-100%)	5 (5=80-100%)
CC#Cc1cc(C)c(C2C(=O)CC3(CCN(C(=O)NC(=O)c4ccccc4)CC3)CC2=O)c(C)c1 [Compound A166]	5 (5=80-100%)	4 (4=60-79%)	4 (4=60-79%)	5 (5=80-100%)	5 (5=80-100%)	5 (5=80-100%)	5 (5=80-100%)	5 (5=80-100%)	5 (5=80-100%)	5 (5=80-100%)
CC#Cc1cc(C)c(C2C(=O)CC3(CCN(C(=O)NC(=O)c4ccccc4F)CC3)CC2=O)c(C)c1 [Compound A167]	4 (4=60-79%)	4 (4=60-79%)	5 (5=80-100%)	5 (5=80-100%)	5 (5=80-100%)	5 (5=80-100%)	5 (5=80-100%)	5 (5=80-100%)	5 (5=80-100%)	5 (5=80-100%)
CC#Cc1cc(C)c(C2C(=O)CC3(CCN(C(=O)NC(=O)c4ccc(C(F)(F)F)cn4)CC3)CC2=O)c(C)c1 [Compound A168]	4 (4=60-79%)	4 (4=60-79%)	5 (5=80-100%)	4 (4=60-79%)	5 (5=80-100%)	4 (4=60-79%)	4 (4=60-79%)	4 (4=60-79%)	5 (5=80-100%)	4 (4=60-79%)
CC#Cc1cc(C)c(C2C(=O)CC3(CCN(C(=O)NC(C)(C)CC)CC3)CC2=O)c(C)c1 [Compound A169]	5 (5=80-100%)	5 (5=80-100%)	5 (5=80-100%)	5 (5=80-100%)	5 (5=80-100%)	5 (5=80-100%)	5 (5=80-100%)	5 (5=80-100%)	5 (5=80-100%)	5 (5=80-100%)
CC#Cc1cc(C)c(C2C(=O)CC3(CCN(C(=O)C4=COCCO4)CC3)CC2=O)c(C)c1 [Compound A170]	4 (4=60-79%)	2 (2=20-39%)	3 (3=40-59%)	4 (4=60-79%)	4 (4=60-79%)	5 (5=80-100%)	5 (5=80-100%)	5 (5=80-100%)	5 (5=80-100%)	5 (5=80-100%)
CC#Cc1cc(C)c(C2C(=O)CC3(CCN(C(=O)COC(C)C)CC3)CC2=O)c(C)c1 [Compound A171]	5 (5=80-100%)	5 (5=80-100%)	5 (5=80-100%)	5 (5=80-100%)	5 (5=80-100%)	5 (5=80-100%)	5 (5=80-100%)	5 (5=80-100%)	5 (5=80-100%)	5 (5=80-100%)
CC#Cc1cc(C)c(C2C(=O)CC3(CCN(C(=O)CCOCC)CC3)CC2=O)c(C)c1 [Compound A172]	5 (5=80-100%)	5 (5=80-100%)	5 (5=80-100%)	5 (5=80-100%)	5 (5=80-100%)	5 (5=80-100%)	5 (5=80-100%)	5 (5=80-100%)	5 (5=80-100%)	5 (5=80-100%)
CC#Cc1cc(C)c(C2C(=O)CC3(CCN(C(=O)[C@H]4COCCO4)CC3)CC2=O)c(C)c1 [Compound A173]	5 (5=80-100%)	5 (5=80-100%)	5 (5=80-100%)	5 (5=80-100%)	5 (5=80-100%)	5 (5=80-100%)	5 (5=80-100%)	5 (5=80-100%)	5 (5=80-100%)	5 (5=80-100%)
CC#Cc1cc(C)c(C2C(=O)CC3(CCN(C(=O)[C@@H]4COCCO4)CC3)CC2=O)c(C)c1 [Compound A174]	5 (5=80-100%)	5 (5=80-100%)	5 (5=80-100%)	5 (5=80-100%)	5 (5=80-100%)	5 (5=80-100%)	5 (5=80-100%)	5 (5=80-100%)	5 (5=80-100%)	5 (5=80-100%)
CC#Cc1cc(C)c(C2C(=O)CC3(CCN(C(=O)C4=COCCC4)CC3)CC2=O)c(C)c1 [Compound A175]	5 (5=80-100%)	4 (4=60-79%)	5 (5=80-100%)	5 (5=80-100%)	5 (5=80-100%)	5 (5=80-100%)	5 (5=80-100%)	5 (5=80-100%)	5 (5=80-100%)	5 (5=80-100%)
CC#Cc1cc(C)c(C2C(=O)CC3(CCN(C(=O)NC(=O)c4ccc(OC)cn4)CC3)CC2=O)c(C)c1 [Compound A176]	3 (3=40-59%)	2 (2=20-39%)	5 (5=80-100%)	5 (5=80-100%)	5 (5=80-100%)	5 (5=80-100%)	5 (5=80-100%)	2 (2=20-39%)	5 (5=80-100%)	5 (5=80-100%)
CC#Cc1cc(C)c(C2C(=O)CC3(CCN(C(=O)Nc4ncccc4C)CC3)CC2=O)c(C)c1 [Compound A177]	2 (2=20-39%)	4 (4=60-79%)	5 (5=80-100%)	5 (5=80-100%)	5 (5=80-100%)	5 (5=80-100%)	4 (4=60-79%)	5 (5=80-100%)	5 (5=80-100%)	5 (5=80-100%)
